# Assay results: ChEMBL document CHEMBL3867434, “Regiospecific Prenylation of Hydroxyxanthones by a Plant Flavonoid Prenyltransferase” (J Nat Prod, 2016)
# The source made the active and inactive calls. The calls are words filed in the database; no cut-off is given here.
# Assay: Neuroprotective activity in human SK-N-SH cells assessed as inhibition of glutamate-induced injury by measuring increase in cell viability at 10 uM preincubated for 4 hrs followed by glutamate addition measured after 4 hrs by MTT assay
# Type: functional, cell-based
row,SMILES,Activity
1,CC(C)=CCc1c(O)cc2oc3cc(O)c(CC=C(C)C)c(O)c3c(=O)c2c1O,Active
2,CC(C)=CCc1c(O)cc2oc3cc(O)cc(O)c3c(=O)c2c1O,Active
3,O=c1c2c(O)cc(O)cc2oc2cc(O)cc(O)c12,Active
4,CC(C)=CCc1c(O)cc2oc3ccc(O)cc3c(=O)c2c1O,Active
5,O=c1c2cc(O)ccc2oc2cc(O)cc(O)c12,Active

# Assay: Neuroprotective activity in human SK-N-SH cells assessed as inhibition of glutamate-induced injury by measuring cell survival at 10 uM preincubated for 4 hrs followed by glutamate addition measured after 4 hrs by MTT assay relative to control
# Type: functional, cell-based
row,SMILES,Survival [%]
1,Oc1ccc(/C=C/c2cc(O)cc(O)c2)cc1,79.9
2,CC(C)=CCc1c(O)cc2oc3ccc(O)cc3c(=O)c2c1O,82.9
